In paper PMC11647725, “Discovery of 4-(5-Membered)Heteroarylether-6-methylpicolinamide Negative Allosteric Modulators of Metabotropic Glutamate Receptor Subtype 5” (ACS Medicinal Chemistry Letters, 2024):

Columns and labels:
Neuropeptide Y Y2 = Neuropeptide Y Y2 (Homo sapiens, UniProt P49146); test: Lead Profiling Screen, Eurofins Panlabs; format: binding; conditions: Neuropeptide Y Y2, hum, read-out: % inh at 10 μM
[1] = target: Serotonin (5-Hydroxytryptamine) 5-HT1A (Homo sapiens, UniProt P08908); test: Lead Profiling Screen, Eurofins Panlabs; format: binding; conditions: Serotonin 5-HT1A, hum, read-out: % inh at 10 μM
[2] = In vivo rat pharmacokinetics; set-up: species or system Sprague–Dawley rat
[3] = In vivo dog pharmacokinetics; conditions: Dog (beagle)
[4] = Intrinsic clearance in rat liver microsomes; format: in vitro ADME
Experimental: Mean values for each species were calculated from 3 replicates.
Intrinsic Clearance in Rat and Human Liver Microsomes
The in vitro intrinsic clearance (CL int) was investigated in commercially obtained hepatic microsomes from rat and human donors using the substrate depletion (i.e., loss-of-parent vs. time, or t 1/2 method) approach with analyte detection via liquid chromatography-tandem mass spectrometry (LC-MS/MS). For each species, mean %parent remaining values at each time point were calculated from replicates raw data (analyte:IS peak area ratios) and used to determine in vitro t 1/2 and CLint.
Experiments were carried out using a robot-assisted (TECAN model Evo 200). Compound was incubated (1 µM final concentration) in buffer (100 mM potassium phosphate pH 7.4 with 3 mM MgCl2) containing hepatic microsomes (0.5 mg/mL final concentration) from multiple species, discretely, at 37 °C under constant orbital shaking. After 5 minutes (pre-incubation), reactions were initiated by addition of nicotinamide adenine dinucleotide phosphate (NADPH, 1 mM final concentration). At selected time intervals (0, 3, 7, 15, 25, and 45 minutes) post-addition of NADPH, aliquots (50 µL) were taken and placed into a 96-shallow-well plate containing ice cold acetonitrile (150 µL) with carbamazepine (IS, 50 nM). The plates were then centrifuged (3000 rcf at 4 °C) for 10 minutes. The supernatants were transferred to a new 96-shallow-well daughter plate and diluted (1:1 v/v) with water (Milli-Q filtered). The plates were then sealed in preparation for LC-MS/MS analysis (see below).
Raw LC-MS/MS peak area data generated from the assay samples were used to construct natural log-transformed %parent remaining vs. time plots (using t = 0 minute post-NADPH addition sample data as starting point set to 100%). In vitro compound half-life (t 1/2) values were obtained using the following […]
k is the slope from linear regression analysis of the natural log-transformed data (using means from Where all replicates at each time point). Resulting t 1/2 values were then used to calculate hepatic CLint values according to the following equation and with the use of species-specific scale-up factors for liver weight (grams) per total body weight (kg): […]
CLint = in vitro t1/2 x 0.5 mg microsomes x 1 gram liver x kg body wt aScale-up factors used are 45 (rat) and 20 (human).4
Predicted hepatic clearance (CLhep) was calculated using the following equation: […]
Qh represents hepatic blood flow (mL/min/kg): 21 for human, 70 for rat, and 90 for mouse.
Prepared samples were injected (10 µL each) onto an AB Sciex Triple Quad 4500 mass spectrometer system with an Agilent 1260 Infinity II pump and autosampler. Mass spectrometer conditions are described in Table S1. Quantitation of compounds was performed via AB Sciex Multiquant software using the raw analyte:IS peak area ratios. The typical detection range was 0.5 ng/mL to ≥ 5,000 ng/mL utilizing a quadratic equation regression with 1/x2 weighting.
Correction for dilution of all brain samples (in extraction buffer and subsequently in blank plasma, as previously described) was performed post-quantitation. The corrections for dilution in extraction buffer employed correction factors specific to each brain weight (not shown).

[5] = target: Serotonin (5-Hydroxytryptamine) 5-HT2B (Homo sapiens, UniProt P41595); test: Lead Profiling Screen, Eurofins Panlabs; format: binding; conditions: Serotonin 5-HT2B, hum, read-out: % inh at 10 μM
Sigma σ1 = Sigma σ1 (Homo sapiens, UniProt Q99720); test: Lead Profiling Screen, Eurofins Panlabs; format: binding; conditions: Sigma σ1, hum, read-out: % inh at 10 μM
[6] = target: Transporter, Dopamine (DAT) (Homo sapiens, UniProt Q01959); test: Lead Profiling Screen, Eurofins Panlabs; format: binding; conditions: hum, read-out: % inh at 10 μM
Transporter, GABA = test: Lead Profiling Screen, Eurofins Panlabs; format: binding; conditions: rat
CYP 2C9 = target: T1, CYP 2C9 (Homo sapiens, UniProt P11712); test: P450 inhibition in pooled human liver microsomes; format: in vitro ADME; conditions: pooled HLM, NADPH, CYP-specific probe substrates; listed as VU6043653
T1 construct: from tissue; host or cells: pooled human liver microsomes (per the earlier reading)

Purinergic P2X = test: Lead Profiling Screen, Eurofins Panlabs; format: binding; conditions: rat
[7] = IV plasma-brain level determination (PBL) in rat; format: in vivo; conditions: male, Sprague-Dawley, brain and plasma, SD rat, 0.2 mg/kg IV
[8] = target: Platelet Activating Factor (PAF) (Homo sapiens, UniProt P25105); test: Lead Profiling Screen, Eurofins Panlabs; format: binding; conditions: hum, read-out: % inh at 10 μM
Sequence of Platelet Activating Factor (PAF) (P25105 whole entry): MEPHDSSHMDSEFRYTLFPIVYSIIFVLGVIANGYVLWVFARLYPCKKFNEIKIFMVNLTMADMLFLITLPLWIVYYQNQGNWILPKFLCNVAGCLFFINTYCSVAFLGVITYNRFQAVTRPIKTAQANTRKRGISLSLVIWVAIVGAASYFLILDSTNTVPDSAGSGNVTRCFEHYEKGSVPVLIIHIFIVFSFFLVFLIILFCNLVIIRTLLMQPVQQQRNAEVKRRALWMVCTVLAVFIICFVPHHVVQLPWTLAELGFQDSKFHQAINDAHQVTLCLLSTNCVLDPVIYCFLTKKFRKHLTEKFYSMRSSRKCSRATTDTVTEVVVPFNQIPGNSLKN

T1 sequence (P11712 whole entry): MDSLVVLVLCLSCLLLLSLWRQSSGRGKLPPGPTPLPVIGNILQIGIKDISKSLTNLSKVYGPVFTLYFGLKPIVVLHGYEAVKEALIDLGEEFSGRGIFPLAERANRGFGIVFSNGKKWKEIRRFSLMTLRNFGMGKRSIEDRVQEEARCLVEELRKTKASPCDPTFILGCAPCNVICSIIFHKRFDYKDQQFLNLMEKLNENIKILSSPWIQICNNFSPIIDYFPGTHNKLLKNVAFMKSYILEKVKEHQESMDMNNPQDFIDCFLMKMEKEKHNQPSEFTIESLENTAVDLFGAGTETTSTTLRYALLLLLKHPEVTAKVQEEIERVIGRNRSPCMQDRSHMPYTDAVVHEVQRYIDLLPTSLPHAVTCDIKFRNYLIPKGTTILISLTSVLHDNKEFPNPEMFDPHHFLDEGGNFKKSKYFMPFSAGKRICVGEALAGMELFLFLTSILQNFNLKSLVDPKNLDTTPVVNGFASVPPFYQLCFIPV
Sequence of Neuropeptide Y Y2 (P49146 whole entry): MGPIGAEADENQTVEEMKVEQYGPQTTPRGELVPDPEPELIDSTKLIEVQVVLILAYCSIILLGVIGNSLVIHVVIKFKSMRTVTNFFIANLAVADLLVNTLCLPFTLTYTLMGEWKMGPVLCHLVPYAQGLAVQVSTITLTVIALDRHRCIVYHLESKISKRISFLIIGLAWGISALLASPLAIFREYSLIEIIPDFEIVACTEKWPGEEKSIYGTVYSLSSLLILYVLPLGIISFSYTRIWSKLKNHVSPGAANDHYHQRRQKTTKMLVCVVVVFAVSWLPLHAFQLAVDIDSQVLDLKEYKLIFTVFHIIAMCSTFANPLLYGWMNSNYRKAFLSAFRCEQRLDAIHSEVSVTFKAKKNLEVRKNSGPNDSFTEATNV
Sequence of Sigma σ1 (Q99720 whole entry): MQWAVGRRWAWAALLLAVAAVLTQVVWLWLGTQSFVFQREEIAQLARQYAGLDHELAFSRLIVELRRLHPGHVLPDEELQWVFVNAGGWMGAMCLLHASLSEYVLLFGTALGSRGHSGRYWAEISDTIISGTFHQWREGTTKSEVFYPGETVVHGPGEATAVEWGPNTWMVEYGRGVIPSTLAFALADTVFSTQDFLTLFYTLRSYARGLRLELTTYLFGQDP
Sequence of Transporter, Dopamine (DAT) (Q01959 whole entry): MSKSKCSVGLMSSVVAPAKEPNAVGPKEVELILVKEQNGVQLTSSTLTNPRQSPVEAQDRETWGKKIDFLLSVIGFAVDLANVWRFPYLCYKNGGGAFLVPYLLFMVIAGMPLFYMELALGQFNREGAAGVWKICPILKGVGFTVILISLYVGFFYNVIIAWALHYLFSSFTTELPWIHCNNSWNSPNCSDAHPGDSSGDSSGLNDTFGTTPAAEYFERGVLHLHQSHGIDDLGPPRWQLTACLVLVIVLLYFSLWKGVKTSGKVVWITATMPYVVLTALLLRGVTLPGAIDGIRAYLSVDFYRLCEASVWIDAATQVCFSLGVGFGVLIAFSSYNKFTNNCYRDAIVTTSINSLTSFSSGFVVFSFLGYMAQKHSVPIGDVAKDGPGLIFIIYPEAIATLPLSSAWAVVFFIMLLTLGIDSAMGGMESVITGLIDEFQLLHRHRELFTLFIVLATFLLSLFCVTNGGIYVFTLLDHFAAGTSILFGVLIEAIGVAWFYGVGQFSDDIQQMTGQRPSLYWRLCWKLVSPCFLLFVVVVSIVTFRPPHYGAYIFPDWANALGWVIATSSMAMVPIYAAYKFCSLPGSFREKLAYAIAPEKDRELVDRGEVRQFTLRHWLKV
Sequence of Serotonin (5-Hydroxytryptamine) 5-HT1A (P08908 whole entry): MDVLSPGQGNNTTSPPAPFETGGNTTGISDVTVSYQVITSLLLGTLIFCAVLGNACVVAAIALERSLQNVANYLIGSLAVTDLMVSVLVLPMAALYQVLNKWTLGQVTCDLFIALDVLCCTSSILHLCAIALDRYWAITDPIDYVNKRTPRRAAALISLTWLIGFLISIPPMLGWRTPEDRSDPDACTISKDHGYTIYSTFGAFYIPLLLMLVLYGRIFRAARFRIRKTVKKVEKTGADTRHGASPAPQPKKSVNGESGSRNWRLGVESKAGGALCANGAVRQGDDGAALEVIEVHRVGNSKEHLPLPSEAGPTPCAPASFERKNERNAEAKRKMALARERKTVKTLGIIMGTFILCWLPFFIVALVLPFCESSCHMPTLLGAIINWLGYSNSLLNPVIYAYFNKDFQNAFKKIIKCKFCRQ
Sequence of Serotonin (5-Hydroxytryptamine) 5-HT2B (P41595 whole entry): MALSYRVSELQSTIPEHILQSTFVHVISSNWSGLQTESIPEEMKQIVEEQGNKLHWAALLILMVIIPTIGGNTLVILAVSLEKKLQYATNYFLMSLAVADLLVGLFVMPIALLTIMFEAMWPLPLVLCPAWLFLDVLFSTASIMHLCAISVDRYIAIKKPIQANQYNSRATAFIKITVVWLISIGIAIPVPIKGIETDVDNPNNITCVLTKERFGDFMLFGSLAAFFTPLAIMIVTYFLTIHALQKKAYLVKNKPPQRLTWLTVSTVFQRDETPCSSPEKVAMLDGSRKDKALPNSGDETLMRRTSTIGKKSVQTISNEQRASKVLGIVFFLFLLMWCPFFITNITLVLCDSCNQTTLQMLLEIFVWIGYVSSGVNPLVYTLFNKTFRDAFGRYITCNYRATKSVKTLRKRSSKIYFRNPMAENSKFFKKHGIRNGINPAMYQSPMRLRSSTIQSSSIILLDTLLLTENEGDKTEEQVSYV

Structure (SMILES): Cc1cc(Oc2cnn(C)c2)cc(C(=O)Nc2ccc(F)cn2)n1 [22iA]
- inhibition at 10 µM (Neuropeptide Y Y2): -5%
- inhibition at 10 µM [1]: 3%
- CLp ([2]; Rat (SD), IV 1.0 mg/kg): 41 mL/min/kg
- MRT ([2]; Rat (SD), IV 1.0 mg/kg): 50.4 min
- Vss ([2]; Rat (SD), IV 1.0 mg/kg): 2.0 L/kg
- t1/2 ([2]; Rat (SD), IV 1.0 mg/kg): 44.4 min
- AUC0-∞ ([2]; Rat (SD), PO 10.0 mg/kg): 1320 ng·h/mL
- Cmax ([2]; Rat (SD), PO 10.0 mg/kg): 402 ng/mL
- Tmax ([2]; Rat (SD), PO 10.0 mg/kg): 1.95 h
- %F ([2]; Rat (SD), PO 10.0 mg/kg, oral bioavailability): 43%
- half-life ([2]; Sprague-Dawley, rat, plasma, intravenous, 1 mg/kg, rats, value as given in running text, read-out: elimination t1/2): ~45 min
- bioavailability ([2]; Sprague-Dawley, rat, plasma, po, 10 mg/kg): 40%
- CLp ([3]; IV 0.5 mg/kg): 38 mL/min/kg
- MRT ([3]; IV 0.5 mg/kg): 1.41 h
- Vss ([3]; IV 0.5 mg/kg): 3.2 L/kg
- t1/2 ([3]; IV 0.5 mg/kg): 1.55 h
- AUC0-∞ ([3]; PO 3.0 mg/kg): 264 ng·h/mL
- Cmax ([3]; PO 3.0 mg/kg): 70.3 ng/mL
- Tmax ([3]; PO 3.0 mg/kg): 40.2 min
- %F ([3]; PO 3.0 mg/kg, oral bioavailability): 20%
- CLint scaled at 40 min, 1 µM ([4]; pH 7.4, rat liver microsomes): 48 mL/min/kg
- CLhep, rat ([4]; predicted hepatic clearance based on microsomal CLint): 28 mL/min/kg
- inhibition at 10 µM [5]: 40%
- inhibition at 10 µM (Sigma σ1): 0%
- inhibition at 10 µM [6]: 25%
- % inh at 10 μM (Transporter, GABA): -1%
- IC50 (CYP 2C9): ≥ 30 µM
- % inh at 10 μM (Purinergic P2X): 15%
- Kp at 0.25 h ([7]; total brain-to-plasma partition ratio): 1.68
- Kp uu at 0.25 h ([7]; unbound brain-to-plasma partition ratio): 0.34
- inhibition at 10 µM [8]: 3%
